According to paper PMC10879502, “Linking ATP and allosteric sites to achieve superadditive binding with bivalent EGFR kinase inhibitors” (Communications Chemistry, 2024):

Key:
Assay in all cases: KINOMEscan
Format in all cases: binding
Details in all cases: 1 μM
ACVR1B = ACVR1B (Homo sapiens, UniProt P36896)
ALK = ALK (Homo sapiens, UniProt Q9UM73)
CDK4-cyclinD3 = CDK4-cyclinD3 (Homo sapiens, UniProt P11802)
CHEK2 = CHEK2 (Homo sapiens, UniProt O96017)
CLK1 = CLK1 (Homo sapiens, UniProt P49759)
CLK1, sequence (P49759 whole entry): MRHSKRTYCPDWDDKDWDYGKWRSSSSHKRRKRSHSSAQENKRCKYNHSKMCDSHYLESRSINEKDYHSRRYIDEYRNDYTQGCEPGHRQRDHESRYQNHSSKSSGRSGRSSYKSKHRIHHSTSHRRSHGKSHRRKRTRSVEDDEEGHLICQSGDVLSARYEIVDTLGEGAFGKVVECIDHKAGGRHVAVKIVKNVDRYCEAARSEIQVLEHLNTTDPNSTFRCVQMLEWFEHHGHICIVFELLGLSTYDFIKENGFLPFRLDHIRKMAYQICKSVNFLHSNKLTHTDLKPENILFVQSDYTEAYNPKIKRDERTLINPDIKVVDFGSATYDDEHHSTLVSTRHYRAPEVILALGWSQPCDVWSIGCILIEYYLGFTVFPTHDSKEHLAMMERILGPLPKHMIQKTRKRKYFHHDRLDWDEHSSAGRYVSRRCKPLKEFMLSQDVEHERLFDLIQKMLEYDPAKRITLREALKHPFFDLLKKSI

CSNK1A1L = target: T1, CSNK1A1L (Homo sapiens, UniProt Q8N752)
T1 construct: purchased Eurofins DiscoverX Corporation

DDR2 = target: T2, DDR2 (Homo sapiens, UniProt Q16832)
T2 construct: purchased Eurofins DiscoverX Corporation

EGFR(G719S) = EGFR(G719S) (Homo sapiens, UniProt P00533, G719S)
EGFR(S752-I759del) = EGFR(S752-I759del) (Homo sapiens, UniProt P00533, DEL752-759)
EPHA1 = EPHA1 (Homo sapiens, UniProt P21709)
EPHA8 = EPHA8 (Homo sapiens, UniProt P29322)
EPHA8, sequence (P29322 28-1005): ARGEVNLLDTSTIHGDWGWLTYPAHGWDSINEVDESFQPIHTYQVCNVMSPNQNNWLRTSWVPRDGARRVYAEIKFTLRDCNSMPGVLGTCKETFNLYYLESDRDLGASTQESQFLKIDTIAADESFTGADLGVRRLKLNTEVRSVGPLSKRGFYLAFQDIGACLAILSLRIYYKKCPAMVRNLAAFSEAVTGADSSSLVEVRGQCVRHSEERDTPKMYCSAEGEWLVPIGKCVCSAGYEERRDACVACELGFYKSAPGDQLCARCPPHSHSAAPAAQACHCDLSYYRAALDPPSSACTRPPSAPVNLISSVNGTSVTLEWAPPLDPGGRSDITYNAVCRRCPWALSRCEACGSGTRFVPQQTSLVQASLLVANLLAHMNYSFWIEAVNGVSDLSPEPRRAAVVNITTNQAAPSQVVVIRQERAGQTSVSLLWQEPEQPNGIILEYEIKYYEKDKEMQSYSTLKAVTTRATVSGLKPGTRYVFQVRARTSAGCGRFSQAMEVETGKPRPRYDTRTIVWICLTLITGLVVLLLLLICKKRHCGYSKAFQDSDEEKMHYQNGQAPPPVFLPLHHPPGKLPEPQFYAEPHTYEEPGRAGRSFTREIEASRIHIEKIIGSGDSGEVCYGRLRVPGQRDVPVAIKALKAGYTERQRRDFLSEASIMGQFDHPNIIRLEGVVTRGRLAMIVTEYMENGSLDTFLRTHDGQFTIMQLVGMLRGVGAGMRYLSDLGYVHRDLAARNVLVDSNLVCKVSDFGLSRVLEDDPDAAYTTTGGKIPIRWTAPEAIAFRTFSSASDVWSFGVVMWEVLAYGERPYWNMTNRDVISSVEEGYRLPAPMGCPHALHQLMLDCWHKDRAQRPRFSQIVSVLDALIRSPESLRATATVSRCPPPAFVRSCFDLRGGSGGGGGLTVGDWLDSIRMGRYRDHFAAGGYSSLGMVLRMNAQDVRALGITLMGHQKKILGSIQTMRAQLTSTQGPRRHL

FGR = FGR (Homo sapiens, UniProt P09769)
FLT3(ITD+D835V) = tested on: FLT3(ITD+D835V)
FLT3(ITD+F691L) = tested on: FLT3(ITD+F691L)
FLT3(K663Q) = target: T3, FLT3(K663Q) (Homo sapiens, UniProt P36888, K663Q)
T3 construct: purchased Eurofins DiscoverX Corporation

FLT3-autoinhibited = target: T4, FLT3-autoinhibited (Homo sapiens, UniProt P36888)
T4 construct: purchased Eurofins DiscoverX Corporation

GRK3 = target: T5, GRK3 (Homo sapiens, UniProt P35626)
T5 construct: purchased Eurofins DiscoverX Corporation

GRK4 = target: T6, GRK4 (Homo sapiens, UniProt P32298)
T6 construct: purchased Eurofins DiscoverX Corporation

GSK3B = target: T7, GSK3B (Homo sapiens, UniProt P49841)
T7 construct: purchased Eurofins DiscoverX Corporation

IKK-beta = target: T8, IKK-beta (Homo sapiens, UniProt O14920)
T8 construct: purchased Eurofins DiscoverX (KINOMEscan)

[1] = target: T9, JAK2(JH1domain-catalytic) (Homo sapiens, UniProt O60674)
T9 construct: JAK2(JH1domain-catalytic); purchased Eurofins DiscoverX (KINOMEscan)
T9 sequence (O60674 849-1124 limits assumed): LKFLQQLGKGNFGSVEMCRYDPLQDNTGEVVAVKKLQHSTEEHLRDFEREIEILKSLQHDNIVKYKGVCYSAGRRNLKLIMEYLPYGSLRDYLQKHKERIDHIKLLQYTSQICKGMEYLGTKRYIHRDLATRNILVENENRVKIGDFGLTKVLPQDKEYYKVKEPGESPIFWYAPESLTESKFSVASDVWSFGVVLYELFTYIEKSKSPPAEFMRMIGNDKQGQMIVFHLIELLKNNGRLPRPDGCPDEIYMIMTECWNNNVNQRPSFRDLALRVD

KIT(D816V) = target: T10, KIT(D816V) (Homo sapiens, UniProt P10721, D816V)
T10 construct: purchased Eurofins DiscoverX (KINOMEscan)

KIT(V559D+V654A) = target: T11, KIT(V559D+V654A) (Homo sapiens, UniProt P10721, V559D/V654A)
T11 construct: purchased Eurofins DiscoverX Corporation

LOK = target: T12, LOK (Homo sapiens, UniProt O94804)
T12 construct: purchased Eurofins DiscoverX Corporation

MAP3K1 = target: T13, MAP3K1 (Homo sapiens, UniProt Q13233)
T13 construct: purchased Eurofins DiscoverX Corporation

MEK4 = target: T14, MEK4 (Homo sapiens, UniProt P45985)
T14 construct: purchased Eurofins DiscoverX Corporation

MEK6 = target: T15, MEK6 (Homo sapiens, UniProt P52564)
T15 construct: purchased Eurofins DiscoverX Corporation
T15 sequence (P52564 whole entry): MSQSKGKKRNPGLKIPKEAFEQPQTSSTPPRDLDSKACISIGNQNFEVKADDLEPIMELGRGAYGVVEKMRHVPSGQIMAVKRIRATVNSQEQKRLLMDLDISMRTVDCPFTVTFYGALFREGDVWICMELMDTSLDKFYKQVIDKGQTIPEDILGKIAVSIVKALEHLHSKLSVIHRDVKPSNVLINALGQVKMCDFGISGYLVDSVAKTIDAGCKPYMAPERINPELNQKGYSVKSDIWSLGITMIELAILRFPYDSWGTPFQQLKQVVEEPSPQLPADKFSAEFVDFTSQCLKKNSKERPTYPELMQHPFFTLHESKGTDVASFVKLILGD

MYO3A = target: T16, MYO3A (Homo sapiens, UniProt Q8NEV4)
T16 construct: purchased Eurofins DiscoverX Corporation

NDR1 = target: T17, NDR1 (Homo sapiens, UniProt Q15208)
T17 construct: purchased Eurofins DiscoverX Corporation

NEK5 = target: T18, NEK5 (Homo sapiens, UniProt Q6P3R8)
T18 construct: purchased Eurofins DiscoverX Corporation

PKN1 = PKN1 (Homo sapiens, UniProt Q16512)
PRKCE = PRKCE (Homo sapiens, UniProt Q02156)
RIOK1 = RIOK1 (Homo sapiens, UniProt Q9BRS2)
[2] = target: RPS6KA4(Kin.Dom.2-C-terminal) (Homo sapiens, UniProt O75676)
[3] = target: RSK2(Kin.Dom.1-N-terminal) (Homo sapiens, UniProt P51812)
SRC = SRC (Homo sapiens, UniProt P12931)
SRPK1 = SRPK1 (Homo sapiens, UniProt Q96SB4)
SYK = target: T19, SYK (Homo sapiens, UniProt P43405)
T19 construct: purchased Eurofins DiscoverX Corporation

TIE1 = target: T20, TIE1 (Homo sapiens, UniProt P35590)
T20 construct: purchased Eurofins DiscoverX Corporation
T20 sequence (P35590 22-1138): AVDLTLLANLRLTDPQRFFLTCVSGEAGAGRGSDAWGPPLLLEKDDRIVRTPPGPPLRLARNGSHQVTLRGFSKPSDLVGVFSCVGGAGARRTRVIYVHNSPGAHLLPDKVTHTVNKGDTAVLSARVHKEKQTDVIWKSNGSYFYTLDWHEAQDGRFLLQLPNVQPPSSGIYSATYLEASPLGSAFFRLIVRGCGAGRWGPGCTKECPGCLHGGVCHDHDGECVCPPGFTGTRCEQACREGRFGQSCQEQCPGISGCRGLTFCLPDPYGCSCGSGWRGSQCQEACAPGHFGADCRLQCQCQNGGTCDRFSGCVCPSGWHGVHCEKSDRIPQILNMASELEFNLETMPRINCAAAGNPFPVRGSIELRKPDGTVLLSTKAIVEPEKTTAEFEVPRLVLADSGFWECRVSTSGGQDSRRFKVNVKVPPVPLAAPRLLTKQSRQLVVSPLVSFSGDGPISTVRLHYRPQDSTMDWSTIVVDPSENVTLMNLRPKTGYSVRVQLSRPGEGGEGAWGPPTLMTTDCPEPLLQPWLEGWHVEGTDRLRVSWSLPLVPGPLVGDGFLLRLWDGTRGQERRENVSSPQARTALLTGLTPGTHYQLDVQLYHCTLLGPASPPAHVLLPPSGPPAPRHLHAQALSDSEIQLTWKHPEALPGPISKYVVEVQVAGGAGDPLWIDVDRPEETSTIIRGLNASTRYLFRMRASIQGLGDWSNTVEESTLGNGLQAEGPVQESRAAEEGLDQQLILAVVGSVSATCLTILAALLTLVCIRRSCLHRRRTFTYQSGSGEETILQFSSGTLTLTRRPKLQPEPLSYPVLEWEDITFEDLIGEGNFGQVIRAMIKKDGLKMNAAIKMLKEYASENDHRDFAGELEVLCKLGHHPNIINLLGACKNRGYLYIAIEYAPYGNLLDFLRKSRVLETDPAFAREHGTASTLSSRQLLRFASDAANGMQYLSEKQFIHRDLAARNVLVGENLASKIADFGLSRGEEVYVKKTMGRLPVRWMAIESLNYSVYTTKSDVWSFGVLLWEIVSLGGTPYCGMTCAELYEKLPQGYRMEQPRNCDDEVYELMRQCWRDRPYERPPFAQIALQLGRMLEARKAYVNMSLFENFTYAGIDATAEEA

TIE2 = target: T21, TIE2 (Homo sapiens, UniProt Q02763)
T21 construct: purchased Eurofins DiscoverX Corporation
T21 sequence (Q02763 23-1124): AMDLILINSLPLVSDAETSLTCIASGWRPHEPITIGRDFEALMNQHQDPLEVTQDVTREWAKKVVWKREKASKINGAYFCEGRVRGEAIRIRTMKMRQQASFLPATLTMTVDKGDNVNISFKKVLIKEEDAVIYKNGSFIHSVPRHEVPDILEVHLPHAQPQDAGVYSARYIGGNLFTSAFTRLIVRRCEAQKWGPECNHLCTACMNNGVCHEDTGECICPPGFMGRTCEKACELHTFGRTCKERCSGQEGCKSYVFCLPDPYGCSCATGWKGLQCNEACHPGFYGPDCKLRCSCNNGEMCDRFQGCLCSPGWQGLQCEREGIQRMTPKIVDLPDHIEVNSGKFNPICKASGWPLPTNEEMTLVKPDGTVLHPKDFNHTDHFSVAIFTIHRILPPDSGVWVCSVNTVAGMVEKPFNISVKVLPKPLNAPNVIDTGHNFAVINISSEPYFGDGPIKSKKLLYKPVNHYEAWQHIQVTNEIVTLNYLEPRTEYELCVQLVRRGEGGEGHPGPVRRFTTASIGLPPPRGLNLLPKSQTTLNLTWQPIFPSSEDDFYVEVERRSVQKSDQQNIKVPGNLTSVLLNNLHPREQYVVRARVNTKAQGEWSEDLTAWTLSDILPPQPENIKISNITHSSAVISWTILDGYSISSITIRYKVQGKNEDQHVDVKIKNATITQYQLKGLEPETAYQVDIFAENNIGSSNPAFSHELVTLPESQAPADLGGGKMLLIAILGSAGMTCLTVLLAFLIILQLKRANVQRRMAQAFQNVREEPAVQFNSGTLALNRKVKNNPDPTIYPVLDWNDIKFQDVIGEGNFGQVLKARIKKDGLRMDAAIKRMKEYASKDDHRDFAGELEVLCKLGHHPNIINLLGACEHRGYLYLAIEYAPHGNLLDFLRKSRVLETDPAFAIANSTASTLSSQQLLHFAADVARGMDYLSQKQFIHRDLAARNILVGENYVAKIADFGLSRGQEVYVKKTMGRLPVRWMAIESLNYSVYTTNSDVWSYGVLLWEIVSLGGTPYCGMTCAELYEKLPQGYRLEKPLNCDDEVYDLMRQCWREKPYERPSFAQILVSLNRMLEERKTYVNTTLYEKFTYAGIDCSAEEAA

TNNI3K = target: T22, TNNI3K (Homo sapiens, UniProt Q59H18)
T22 construct: purchased Eurofins DiscoverX Corporation

[4] = target: TYK2(JH2domain-pseudokinase) (Homo sapiens, UniProt P29597)

CHEK2, sequence (O96017 whole entry): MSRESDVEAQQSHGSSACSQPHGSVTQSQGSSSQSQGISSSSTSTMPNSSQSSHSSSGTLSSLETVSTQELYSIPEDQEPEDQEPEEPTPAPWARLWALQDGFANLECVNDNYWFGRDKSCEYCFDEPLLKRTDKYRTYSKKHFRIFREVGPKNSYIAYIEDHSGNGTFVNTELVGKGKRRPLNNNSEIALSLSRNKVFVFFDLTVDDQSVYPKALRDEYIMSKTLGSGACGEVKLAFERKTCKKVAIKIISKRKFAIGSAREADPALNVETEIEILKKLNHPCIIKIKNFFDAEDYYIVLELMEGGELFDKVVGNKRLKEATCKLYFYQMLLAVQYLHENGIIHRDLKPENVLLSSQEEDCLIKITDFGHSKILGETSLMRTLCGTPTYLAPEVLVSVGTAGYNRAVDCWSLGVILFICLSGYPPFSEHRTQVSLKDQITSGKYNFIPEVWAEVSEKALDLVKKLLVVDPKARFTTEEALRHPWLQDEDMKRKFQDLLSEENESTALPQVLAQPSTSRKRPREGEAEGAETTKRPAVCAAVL

C=CC(=O)Nc1ccc(OC)c(Nc2cc(-c3[nH]c(CC)nc3-c3cccc(NC(=O)c4cccc5c4NC(=O)c4ccccc4N5)c3)ccn2)c1 [Compound 4]
POC (ACVR1B): 85% of control
POC (ALK): 100% of control
POC (CDK4-cyclinD3): 49% of control
POC (CHEK2): 87% of control
POC (CLK1): 100% of control
POC (CSNK1A1L): 91% of control
POC (DDR2): 100% of control
POC (EGFR(G719S)): 13% of control
POC (EGFR(S752-I759del)): 6% of control
POC (EPHA1): 100% of control
POC (EPHA8): 98% of control
POC (FGR): 19% of control
POC (FLT3(ITD+D835V)): 100% of control
POC (FLT3(ITD+F691L)): 79% of control
POC (FLT3(K663Q)): 87% of control
POC (FLT3-autoinhibited): 100% of control
POC (GRK3): 100% of control
POC (GRK4): 100% of control
POC (GSK3B): 100% of control
POC (IKK-beta): 88% of control
POC [1]: 86% of control
POC (KIT(D816V)): 94% of control
POC (KIT(V559D+V654A)): 93% of control
POC (LOK): 49% of control
POC (MAP3K1): 100% of control
POC (MEK4): 100% of control
POC (MEK6): 73% of control
POC (MYO3A): 14% of control
POC (NDR1): 73% of control
POC (NEK5): 100% of control
POC (PKN1): 88% of control
POC (PRKCE): 100% of control
POC (RIOK1): 100% of control
POC [2]: 75% of control
POC [3]: 100% of control
POC (SRC): 73% of control
POC (SRPK1): 100% of control
POC (SYK): 63% of control
POC (TIE1): 100% of control
POC (TIE2): 71% of control
POC (TNNI3K): 89% of control
POC [4]: 100% of control
